One series concerns S. mutans Gtfs. Put plainly: Gtf zymographic assay with SDS-PAGE. The class given is biochemical, Streptococcus mutans. Particulars: for % Inhibition of GTFs at 10 μM: S. mutans GTF zymogram assay, NI = no inhibition up to 10 μM; for Gtf enzyme inhibitory activity, glucan bands in zymogram / production of Gtfs, protein level on SDS-PAGE: 50 μM added to cultures. The method, then: A well-established zymographic assay was used to determine enzymatic activity of Gtfs (Mattos-Graner et al. (2004) J. Clin. Microbiol. 42, […]). In brief, overnight S. mutans UA159 cultures were diluted 1:100 in fresh 5 mL THB with 50 μL of selective compounds at a series of concentrations. Treated bacteria were grown to OD470 of 1.0, and spun down by centrifugation at 4° C., and culture supernatants were collected and filtered through a 0.22-μm-pore-size filter membrane to remove residual bacterial cells and dialyzed at 4° C. against 0.02 M sodium phosphate buffer (pH 6.8), with 10 μM phenylmethylsulfonyl fluoride (PMSF), followed by a second dialysis against 0.2 mM sodium phosphate containing 10 μM PMSF. After dialysis, 4 mL of samples were concentrated to 40 μL by 100K Amicon Ultra-4 centrifugal filter (Merck Millipore Ltd.). For electrophoresis and zymographic analysis, 10 μL of each concentrated culture supernatant was applied to 8% SDS-PAGE in duplicate. One gel was used for protein staining with Coomassie blue dye, while the other one was subjected to zymographic assay as described (Mattos-Graner et al. (2004) J. Clin. Microbiol. 42, […]). The resultant white opaque glucan bands were visualized against a black background.
Inhibition of the activity of Gtfs determined by zymographic assays. Well established zymographic assay was used to determine enzymatic activity of Gtfs. In brief, overnight S. mutans UA159 cultures were diluted 1:100 in fresh 5 mL THB. Bacteria were grown to OD470 of 1.0, and spun down by centrifugation at 4° C. and culture supernatants were collected and filtered through a 0.22-μm-pore-size filter membrane to remove residual bacterial cells and dialyzed at 4° C. against 0.02 M sodium phosphate buffer (pH 6.8), with 10 μM phenylmethylsulfonyl fluoride (PMSF), followed by a second dialysis against 0.2 mM sodium phosphate containing 10 μM PMSF. After dialysis, 4 mL of samples were concentrated to 40 μL by 100K Amicon Ultra-4 centrifugal filter (Merk Millipore Ltd.). For electrophoresis and zymographic analysis, 10 μL of each concentrated culture supernatant was applied to 8% SDS-PAGE in duplicate. One gel was used for protein staining with Coomassie blue dye, while the other one was subjected to zymographic assay. For zymogram analysis, following electrophoretic separation, gels were washed twice for 15 min each with renaturing buffer containing 2.5% Triton X-100. Gels were then incubated for 18 h at 37° C. with 0.2 M sodium phosphate buffer (pH 6.5) containing 0.2% dextran T70, 5% sucrose, and varying concentrations of the small molecule inhibitors. The reactions were stopped by washing gels with distilled water at 4° C. for 10 min, and digital images of the resultant white opaque glucan bands were visualized against a black background and captured using a digital camera.
Inhibition of the activity of Gtfs determined by zymographic assays. A well-established zymographic assay was used to determine enzymatic activity of Gtfs (Mattos-Graner, R. O., Napimoga, M. H., Fukushima, K., Duncan, M. J., Smith, D. J., J Clin Microbiol, 2004, 42, 4586). In brief, overnight S. mutans UA159 cultures were diluted 1:100 in fresh 5 mL THB with 50 μL of selective compounds at a series of concentrations. Treated bacteria were grown to OD470 of 1.0, and spun down by centrifugation at 4° C., and culture supernatants were collected and filtered through a 0.22-μm-pore-size filter membrane to remove residual bacterial cells and dialyzed at 4° C. against 0.02 M sodium phosphate buffer (pH 6.8), with 10 μM phenylmethylsulfonyl fluoride (PMSF), followed by a second dialysis against 0.2 mM sodium phosphate containing 10 μM PMSF. After dialysis, 4 mL of samples were concentrated to 40 μL by 100K Amicon Ultra-4 centrifugal filter (Merk Millipore Ltd.). For electrophoresis and zymographic analysis, 10 μL of each concentrated culture supernatant was applied to 8% SDS-PAGE in duplicate. […]

The next series relates to S. mutans. Put plainly: microbe, parasite or virus in culture. Type of series: cell-based, Streptococcus mutans. The settings on record: for MIC50 / IC50: Streptococcus mutans; for MIC50: read-out: Growth Inhibition MIC50; for IC50: Table 7, synthesized analogs of compound 9, read-out: Growth IC50; for SI (selectivity index): Table 7, growth IC50 value divided by biofilm IC50 value. The method, boiled down: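 Mid-exponential cultures (OD470 0.6) in THB were exposed to compound concentrations for 16 h, with growth read at OD470 and normalised to 1% DMSO control (100%). CFU/mL were also counted after 24 h at 37 °C and compared with the DMSO control.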

Another series deals with S. mutans biofilm. Put plainly: S. mutans biofilm formation and inhibition assay (96-well plates, crystal violet). Particulars: Streptococcus mutans. Type of series: cell-based, Streptococcus mutans.
[1] abbreviates: Table 2, >300 = no inhibition up to 300 μM.
[2] abbreviates: Table 1, >500 = no inhibition up to 500 μM, read-out: Biofilm Inhibition IC50.
Setting [3] is: Table 2, read-out: Biofilm Inhibition IC50.
The mark [4] stands for this setting: Table 5, >500 = no inhibition up to 500 μM, read-out: Biofilm Inhibition IC50.
Where [5] appears, read: Table 7, synthesized analogs of compound 9, read-out: Biofilm IC50.

Where two headings read alike, the source gives them in different places. Marks after values point to notes of the source that are not given here. A value given as a limit tells only on which side of the number the result lay.

For the compound `NC(=O)c1ccccc1NC(=O)c1cc2cc([N+](=O)[O-])ccc2s1` [Compound 3A], in the series with S. mutans Gtfs, the “% Inhibition of GTFs at 10 μM” value stood at 30.3%. In addition, the MIC50 with S. mutans (setting [1]) is more than 300 µM. The IC50 in the series with S. mutans biofilm (setting [2]), with S. mutans biofilm (setting [3]) and in the series with S. mutans biofilm (setting [4]) was 16.7 µM in each case.
As for `NC(=O)c1ccccc1NC(=O)c1cnc2ccccc2c1` [Compound 3I], the “% Inhibition of GTFs at 10 μM” value in the series on S. mutans Gtfs is 36.6%. For the same compound, the MIC50 in the series with S. mutans (setting [1]) was more than 300 µM. Further, the IC50 with S. mutans biofilm (setting [2]), in the series with S. mutans biofilm (setting [3]) and with S. mutans biofilm (setting [4]) was 15.3 µM throughout.
Regarding `NC(=O)c1ccccc1NC(=O)c1cc2cc(N)ccc2s1` [Compound 3M], the “% Inhibition of GTFs at 10 μM” value in the series with S. mutans Gtfs stood at 42.2%. Moreover, the “Growth Inhibition MIC50” value in the series on S. mutans (setting [1]) is on record as >300^b μM. Further, the IC50 with S. mutans biofilm (setting [2]) and in the series on S. mutans biofilm (setting [4]) was 10.2 µM each time.
Turning to `O=C(Nc1ccccc1C(=O)O)c1cc2cc([N+](=O)[O-])ccc2s1` [Compound 3N], the “% Inhibition of GTFs at 10 μM” value with S. mutans Gtfs was determined as 30.1%. The MIC50 in the series on S. mutans (setting [1]) is more than 300 µM. Besides, the half-inhibitory concentration (IC50) with S. mutans biofilm (setting [2]), in the series with S. mutans biofilm (setting [3]) and in the series with S. mutans biofilm (setting [4]) was 89.3 µM each time.
Take `COC(=O)c1ccc(NC(=O)c2cc3cc([N+](=O)[O-])ccc3s2)cc1` [Compound 3O]: the “% Inhibition of GTFs at 10 μM” value in the series with S. mutans Gtfs is 54.8%. In addition, the MIC50 in the series on S. mutans (setting [1]) was more than 300 µM. The IC50 in the series on S. mutans biofilm (setting [2]), with S. mutans biofilm (setting [3]) and in the series on S. mutans biofilm (setting [4]) was 9.6 µM each time.
`O=C(/C=C/c1ccc(O)cc1O)c1ccc(O)cc1` [Compound 18b, (E)-3-(2,4-Dihydroxyphenyl)-1-(4-hydroxyphenyl)-2-propen-1-one] showed a melting point of 185 to 188 °C. In the series with S. mutans Gtfs, the “Gtf enzyme inhibitory activity, glucan bands in zymogram” value (shortened to “Gtf enzyme inhibitory activity”) was “did not exhibit a drastic effect” and the “production of Gtfs, protein level on SDS-PAGE” value (“production of Gtfs” below) is given as “showed an inhibitory effect on the production of Gtfs”. In the series on S. mutans, the IC50 was 1060 ± 118 µM and the “SI (selectivity index)” value turned out to be 6.6. Moreover, the half-maximal inhibitory concentration (IC50) in the series with S. mutans biofilm (setting [5]) came out at 162 ± 21 µM.
On to `O=C(/C=C/c1cc(O)c(O)cc1O)c1ccccc1O` [Compound 18c, (E/Z)-1-(2-hydroxyphenyl)-3-(2,4,5-trihydroxyphenyl)prop-2-en-1-one], for which, in the series with S. mutans Gtfs, the “production of Gtfs” value was “largest inhibition”. Besides, in the series with S. mutans, the “selectivity (index / fold) for biofilm over growth” value amounted to 1.5, the half-inhibitory concentration (IC50) was found to be 323 ± 36 µM and the “SI (selectivity index)” value turned out to be 1.5. Besides, the IC50 in the series with S. mutans biofilm (setting [5]) stood at 224 ± 23 µM.
Turning to `O=C(/C=C/c1cc(O)c(O)cc1O)c1ccc(O)cc1` [Compound 18d, (E)-1-(4-hydroxyphenyl)-3-(2,4,5-trihydroxyphenyl)prop-2-en-1-one], the “Gtf enzyme inhibitory activity” value in the series on S. mutans Gtfs is reported as “some weak inhibition of the GtfC band”. Further, the IC50 in the series on S. mutans was determined as 376 ± 6 µM; in the series with S. mutans biofilm (setting [5]), 76 µM. In addition, the “SI (selectivity index)” value in the series on S. mutans is on record as 4.9.
Regarding `O=C(/C=C\c1ccc(O)cc1O)c1ccc(O)cc1` [Compound 21b, (Z)-3-(2,4-Dihydroxyphenyl)-1-(4-hydroxyphenyl)-2-propen-1-one], the melting point was 185 to 187 °C. For the same compound, in the series with S. mutans Gtfs, the “Gtf enzyme inhibitory activity” value was “exhibit the best inhibitory effects” and the “production of Gtfs” value is on record as “showed an inhibitory effect on the production of Gtfs”. Also, in the series with S. mutans, the concentration for half-maximal inhibition (IC50) came to 782 ± 96 µM and the “SI (selectivity index)” value was 10.1. Besides, in the series on S. mutans biofilm (setting [5]), the IC50 stood at 77 ± 8 µM.
Turning to `C(=C\c1ccccc1)/c1ccccc1` [E-stilbene, reference compound], the “glucan production in zymogram assay” value with S. mutans Gtfs (stilbenes, versus DMSO control) is given as “no glucan inhibition”.

Usually IC50 stands for the concentration needed to halve the response being measured. For orientation: melting point means the temperature, or range, at which the solid turns liquid.

The record behind these values is patent US11866416B2, “Streptococcus mutans glucosyl transferase inhibitors for dental caries therapy” (UAB Research Foundation, priority 2018, dated 2024).
